Experimental data published in patent publication US7427663B2, “Cardio myopeptidin, the production and the use thereof” (Dalian Zhen-Ao Pharmaceutical Co., Ltd., priority 2003, dated 2008).

Experiments:
[1] = system: isolated rat heart with myocardial ischemia-reperfusion; assay: Langendorff isolated rat heart, CPK and LDH of coronary effluent; details: 1 μg/ml
Method: (2) Refer to literature methods to make Langendorff's cardiac hypoxia-reoxygenation damage animal model of isolated rat heart. Conduct Langendorff's perfusion with K—H liquid with high Ca2+ and low K+ and persistent filling of mixed gas. Hook two platinum filaments on the apex of heart and the root of the left cardiac atrium respectively, and record the electrocardiogram. Ligate LAD for 10 min and loosen for 15 min. Conduct perfusion with K—H liquid with corresponding concentrations of cardio myopeptidin from 5 min before ligation to 5 min after loosening for the cardio myopeptidin-treated group. Determine the related indexes of effluent before and after 8 min of ligation and 2 min after loosening respectively. […]

[2] = system: myocardial ischemia-reperfusion in rats; assay: Cardiac muscle and plasma CPK, LDH, MDA of rats with ischemia-reperfusion, prophylactic administration; assay type: in vivo; details: rat I-R
Method: (1) Refer to literature methods to make myocardial ischemia-reperfusion damage animal model. Ligate the left anterior descending branch of the coronary artery of rats for 10 minutes after MTP or verapamil (Ver) is sublingually administered through intravenous injection for 5 min, perfuse for 30 min. Continuously observe II-lead ECG through a polygraph. Take 2 ml left heart blood after the completion of reperfusion, and take the cardiac muscle at the cardiac apex of the left ventricle after the heart is perfused through the aorta. […] Grouping of the experiment: In the experiment, the rats are divided into seven groups: pseudo-operation control group (P); ischemia-reperfusion group (ischemia-reperfusion, I-R); ischemia-reperfusion+normal saline group (I-R+N.S); ischemia-reperfusion +0.5, 2.0 or 10.0 mg/Kg cardio myopeptidin groups (I-R+MTP) and ischemia-reperfusion +1.0 mg/Kg verapamil group (I-R+Ver), 8-10 animals in each group.

[3] = system: myocardial infarction in pigs; assay: Myocardial infarction in miniature pigs (coronary ligation); assay type: in vivo; details: pig, phleboclysis 0.25 mg/kg
Method: Anesthetize a healthy, grown male miniature pig with the body weight of 20.9±4.0 kg with 30 mg/kg of 3% sodium pentobarbital through auditory intravenous injection. Connect the tracheal cannula to a SC-3 electro-respirator to perform artificial positive pressure respiration. Open the thoracic cavity from the third rib at the left side to expose the heart. Separate the anterior descending branch of the coronary artery (about ⅓ distant from the apex of heart), and put a silk thread 0^□ beneath it for ligation. Place a multi-point fixed type epicardium electrode with 20 points on the myocardial surface under the ligature. Record the myocardial electrical signals on an RTA-1200 model hot-wave recorder of a RM-6300 model eight-lead polygraph through a ZYS1-I model numerical control epicardium scanner and AB-601G bioelectric amplifier, and 1 mV standard voltage is equal to 1 mm. Under the control of the automatic timer, measure the change in the electrocardiogram at those 20 points. Intubate a cannula from the femoral artery to the abdominal aorta, and connect it to a AP-641G blood pressure amplifier through a TP-400T model pressotransduer to measure the mean blood pressure (MBP). […]

[4] = system: myocardial oxygen metabolism in dogs; assay: Myocardial oxygen consumption and oxygen uptake in anesthetized dogs; assay type: in vivo; details: dog, i.v. 2 mg/kg
Description: Anesthetize dogs with sodium pentobarbital. Conduct endotracheal intubation and artificial respiration, and use an RM-86 polygraph to monitor electrocardiogram and aortic pressure. Open the thoracic cavity from the left side to expose the heart. Intubate a cannula from the apex of the heart to the left ventricle, and record the pressure of the left ventricle and pressure change rate (±dp/dt max). In order to know the change in circulation of the coronary artery and myocardial oxygen metabolism, separate the left circumflex branch of the coronary artery of dogs, use an electromagnetic flowmeter to measure the flow of coronary artery, and calculate the resistance against the coronary artery. Intubate a cannula from the external jugular vein of dogs to the […]. Simultaneously draw the arterial blood and the coronary sinus blood. Use a blood gas analyzer (Model ABL-3, Denmark) to determine blood oxygen content, and calculate myocardial oxygen uptake and myocardial oxygen consumption. Keep the arterial blood pH, CO2 and partial pressure of oxygen of dogs within normal range. The dose of MTP is 2.5 and 10 mg/kg, and the interval between two doses is 30 min. Continuously record various parameters after administration until they return to the control value. Take arterial blood and coronary sinus blood at 2, 5, 10 and 30 minutes after administration. Determine blood gas content, calculate myocardial oxygen uptake and myocardial oxygen consumption, and observe the effect of MTP on myocardial oxygen metabolism.

[5] = system: cardiac muscle of ischemia-reperfusion in rats; assay: Damage of myocardial ultrastructure caused by ischemia-reperfusion, electron microscope semi-quantitative assay; assay type: in vivo; details: rat, 2.0 mg/Kg i.v.
Method: (§1) By reference to literature methods, sublingually administer cardio myopeptidin or the reference drug through intravenous injection after rat's coronary artery LAD is ligated for 5 minutes; loosen the ligature after 10 minutes of myocardial ischemia, and reperfusion for 30 min, and simultaneously record II-lead ECG. Blood is taken from the abdominal aorta after the completion of reperfusion, and the heart is perfused and fixed with 6% glutaraldehyde and 0.1 M sodium cacodylate buffer for 2 hours after it is perfused and cleaned with physiological saline water through the aorta. Then the ischemic cardiac muscle from the left frontal wall is picked and cut into 1 mm^3 slices. The slices are immersed in 4% glutaraldehyde and 0.1 M sodium cacodylate buffer to be fixed for the preparation of electron microscope specimens. Slice the specimen of each cardiac muscle after fixation with osmic acid, serial dehydration with acetone, embedment and polymerization with epoxy resin 618, and for each cardiac muscle, cut 4 embedded pieces. Randomly take 20 photos for each group of cardiac muscle of animals with the negative magnification equal to 12000. Observe the change in the ultrastructure, and classify and determine the value according to categories of pathologic changes and severity of damage of mitochondrion, myocardial fiber and other components. […]

[6] = system: myocardial ischemia-reperfusion in rats; assay: Plasma FFA content of rats with ischemia-reperfusion; assay type: in vivo; details: rat I-R, 2.0 mg/kg
Method: as §1

[7] = system: myocardial ischemia in cats; assay: Epicardium electrocardiogram of cats with persistent myocardial ischemia, therapeutic administration; assay type: in vivo; details: cat, 2.0 mg/Kg i.v.
myocardial cells = assay: Influence of pH and time on activity of cardio myopeptidin (MTT method); assay type: cell-based; details: Adriamycin damage group, without cardio myopeptidin; normal control 0.691
[8] = system: succinic dehydrogenase of primarily cultured myocardial cells; assay: Influence of each peak of cardio myopeptidin on enzyme activity of myocardial cells (MTT method); assay type: cell-based; details: Adriamycin damage group; normal control 0.344
Description: Polypeptide content in cardio myopeptidin is 75-90[…], free amino acids content is 6-15[…], and there is a little nucleic acid and microelement.

In the case of `COc1ccc(CCN(C)CCCC(C#N)(c2ccc(OC)c(OC)c2)C(C)C)cc1OC` (stereo not drawn) [verapamil], the “Coronary effluent CPK” value ([1]; during ischemia) is reported as 16.2 ± 2.8 U/L, the “Coronary effluent LDH” value ([1]; during ischemia) is reported as 13.0 ± 0.62 U/L and the “Coronary effluent CPK” value ([1]; perfusion) is reported as 16.0 ± 1.8 U/L. The “Coronary effluent LDH” value ([1]; perfusion) was 14.3 ± 0.95 U/L, the “Coronary effluent CPK” value ([1]; prior ischemia) was 16.3 ± 2.0 U/L and the “Coronary effluent LDH” value ([1]; prior ischemia) was 11.4 ± 0.78 U/L. The “Cardiac muscle LDH” value ([2]; 1.0 mg/Kg) was 75.1 ± 23 u/mg pro, the “Cardiac muscle MDA” value ([2]; 1.0 mg/Kg) was 66.6 ± 19.8 nmol/100 mg pro and the “Plasma LDH” value ([2]; 1.0 mg/Kg) was 46.7 ± 8.8 u/ml. For the same molecule, the “Plasma MDA” value ([2]; 1.0 mg/Kg) was 24.9 ± 6.6 nmol/mL, the “Cardiac muscle CPK” value ([2]; 1.0 mg/kg) was 886 ± 115 u/100 mg pro and the “Plasma CPK” value ([2]; 1.0 mg/kg) was 192 ± 60 u/100 ml. The Infarction range [3] was 12.5 ± 3.4 %.

With `CC(C)NCC(O)COc1cccc2ccccc12` (stereo not drawn) [propranolol] the “myocardial oxygen consumption (MVO2), change value after administration” value ([4]; 2 min) was −31.0 ± 13 %, the “myocardial oxygen uptake (O2 ext), change value after administration” value ([4]; 2 min) was −3.00 ± 1.0% and the “myocardial oxygen consumption (MVO2), change value after administration” value ([4]; 5 min) was −30.0 ± 13 %. The “myocardial oxygen uptake (O2 ext), change value after administration” value ([4]; 5 min) was 3.00 ± 7.0%, the “myocardial oxygen consumption (MVO2), change value after administration” value ([4]; 10 min) was −33.0 ± 10 % and the “myocardial oxygen uptake (O2 ext), change value after administration” value ([4]; 10 min) was 3.00 ± 8.0%. For the same molecule, the “myocardial oxygen consumption (MVO2), change value after administration” value ([4]; 30 min) was −32.0 ± 14 %, the “myocardial oxygen uptake (O2 ext), change value after administration” value ([4]; 30 min) was 3.00 ± 9.0% and the “Value of pathological changes ± SD” value [5] was 0.71 ± 0.84. The “FFA (plasma)” value [6] was 77.1 ± 6.4 μmol/100 ml, the ΣNST ([7]; ischemia group 11.1) was 6.17 ± 1.5 Num and the ΣΔST ([7]; ischemia group 40.5) was 22.8 ± 6.4 mV.

For `COc1cccc2c1C(=O)c1c(O)c3c(c(O)c1C2=O)C[C@@](O)(C(=O)CO)C[C@@H]3O[C@H]1C[C@H](N)[C@H](O)[C@H](C)O1` [Adriamycin], the “OD value (MTT method)” value (myocardial cells) was 0.274 ± 0.011 and the “OD value (MTT method)” value [8] was 0.272 ± 0.015.
